In PMC6636992 (Science Advances, 2019):
Ends that are not written are not given here. * marks the point of attachment. Isobutyryl(2-OH) = CC(C)(O)C(=O)*

Legend:
R58M CobB = assay: ITC affinity of Khib peptide with R58M CobB; type: binding, P. mirabilis; conditions: 37°C
WT CobB = assay: De-2-hydroxyisobutyrylation kinetics by MALDI-TOF MS, WT CobB; type: biochemical, P. mirabilis
Y55F CobB = assay: De-2-hydroxyisobutyrylation kinetics by MALDI-TOF MS, Y55F CobB; type: biochemical, P. mirabilis
CobB = assay: LC-MS detection of deacylation of gpmA peptides by CobB; type: biochemical, P. mirabilis
R58M mutant CobB = assay: LC-MS detection of deacylation of gpmA peptides by R58M mutant CobB; type: biochemical, P. mirabilis; conditions: 50 μM peptide, 1 μM CobB, 1 mM NAD^+, pH 8.5, 37°C, 2 hours
P. mirabilis = assay: Growth curve of overexpressing P. mirabilis; type: cell-based; conditions: ENO WT or mutant-overexpressing P. mirabilis, OD600, 37°C
recombinant ENO = type: biochemical, P. mirabilis; conditions: NAM 10 mM with CobB and NAD^+, 25°C, 10 hours, Western blotting
R58M CobB (P. mirabilis) = assay: ITC
Y55F CobB (P. mirabilis) = assay: ITC
[1] = target: recombinant CobB (WT) (P. mirabilis); assay: ITC
[2] = Km for peptide, MALDI-TOF MS, 1 mM NAD^+, pH 8.5, 37°C, 2 min
[3] = MALDI-TOF MS, 1 mM NAD^+, pH 8.5, 37°C, 2 min, 2-285 μM peptide

With YGDEQVK(hib)QWR the “change of affinity of R58M CobB compared with WT CobB” value (R58M CobB) was “significantly decreased eight times”, the kcat/Km (WT CobB) was 1.7e+10 M⁻¹ s⁻¹ and the Km (WT CobB; [2]) was 13.3 ± 1.6 µM. For the same molecule, the kcat (WT CobB; [3]) was 0.225 ± 0.011 s⁻¹, the kcat/Km (Y55F CobB) was 8.3e+09 M⁻¹ s⁻¹ and the Km (Y55F CobB; [2]) was 12.2 ± 2 µM. The kcat (Y55F CobB; [3]) was 0.101 ± 0.006 s⁻¹, the “hydrolysis by CobB in the presence of NAD^+” value (CobB; 50 μM peptide, 1 μM CobB, 1 mM NAD^+, pH 8.5, 37°C, 2 hours) was “efficiently catalyzed the hydrolysis” and the “de-2-hydroxyisobutyrylated peptide without NAD^+” value (CobB; 50 μM peptide, 1 μM CobB, without NAD^+) was “not detected”. For the same molecule, the “deacylated peptide after treatment with R58M mutant” value (R58M mutant CobB) was “not detectable”.

For ENO-K326Q/K343T, the growth rate (P. mirabilis) was “the lowest”.

In the case of NC(=O)c1cccnc1 [NAM, nicotinamide], the “inhibitory effect on removal of Khib relative to other acyl groups” value (CobB; NAM 10 mM) is reported as “greatest inhibitory effect on Khib”, the “inhibitory effect on removal of Ksucc relative to other acyl groups” value (CobB; NAM 10 mM) is reported as “least effect on Ksucc” and the “inhibition of de-2-hydroxyisobutyrylation reaction” value (CobB; NAM 10 mM, 50 μM peptide, 1 μM CobB) is reported as “inhibited efficiently”. The “change of modifications of ENO with NAD^+ and NAM” value (recombinant ENO) was “no significant change in the modifications of ENO”.

For “ENO: enolase of P. mirabilis, His-tagged fusion protein”, the growth rate (P. mirabilis) was “faster than that of mutated ENO-overexpressing P. mirabilis”.

YGDEQVK(Isobutyryl(2-OH))QWR [2-hydroxyisobutyrylated peptide [YGDEQVK(hib)QWR]] was tested, and the Kd (R58M CobB (P. mirabilis)) was 15900 nM, the Kd (Y55F CobB (P. mirabilis)) was 2340 nM and the Kd [1] was 2030 nM.
